Test results taken from patent US20230293470A1, “APPLICATION OF THYROID HORMONES AND ITS ANALOGUES IN PREPARATION OF DRUGS FOR TREATING ALPHA-THALASSEMIA” (SHANGHAI SPH RARE DISEASE PHARMACEUTICAL CO., LTD., priority 2020, published 2023).

Assays:
[1] = system: zeta-globin gene (hbae5) expression in zebrafish embryos; experiment: Whole-mount mRNA in situ hybridization (WISH) of zeta-globin gene (hbae5) in zebrafish embryos; assay type: in vivo; settings: 5 μmon, from 96 hours post fertilization, 24 hours treatment
Description: (§1) K562 cells were cultured in RPMI 1640 medium supplemented with 10% (v/v) fetal bovine serum; Hemin was dissolved into 0.2 mol/L NaOH solution, and the working concentration for treating K562 cells is 20 μmon; Triac, T3 and T4 were dissolved into dimethyl sulfoxide (DMSO), and the working concentration for treating K562 cells and zebrafish embryos is 20 μmon and 5 μmon, respectively.
During the development of zebrafish embryos, Triac, T3 and T4 were incubated with the zebrafish embryos at 96 hours post fertilization. After treatment with Triac, T3 and T4 for 24 hours, respectively, zebrafish embryos were fixed by 4% paraformaldehyde. The expression of zeta-globin gene (hbae5) was detected by Whole-mount mRNA in situ hybridization (WISH).

[2] = system: zeta-globin gene (hbae5) expression in zebrafish embryos; experiment: qPCR of zeta-globin gene (hbae5) expression in zebrafish embryos; assay type: in vivo; settings: 5 μmon, from 96 hours post fertilization, 24 hours treatment
Description: as §1
During the development of zebrafish embryos, Triac, T3 and T4 were incubated with the zebrafish embryos at 96 hours post fertilization. After treatment with Triac, T3 and T4 for 24 hours, respectively, zebrafish embryos were collected. TRIzol reagent (Invitrogen) was used to extract total RNA, then a reverse transcription kit (ReverTra Ace, TOYOBO) was used to synthesize cDNA, and finally, a SYBRGreen Realtime PCR Master Mix (TOYOBO) reagent was used to perform quantitative PCR.
(§2) A quantitative PCR reaction system was as follows:
(§3) Conditions for a quantitative PCR reaction were as follows: • Hot start: 95° C., 10 minutes; • Denaturation: 95° C., 10 seconds; and • Annealing/stretching: 60° C., 30 seconds. • 40 cycles.
(§4) Dissolution Curve Analysis.

[3] = system: zeta-globin gene (HBZ) expression in K562 cells; experiment: qPCR of zeta-globin gene (HBZ) expression in hemin-treated K562 cells; assay type: cell-based, human; settings: hemin 20 μmon plus Triac 20 μmon, 72 hours
Description: as §1
K562 cells were treated with hemin or hemin plus Triac for 72 hours, respectively, centrifugation was performed at 2000 rpm for 5 minutes to collect cells, a TRIzol reagent (Invitrogen) was used to extract total RNA, then a reverse transcription kit (ReverTra Ace, TOYOBO) was used to synthesize cDNA, and finally, a SYBR Green Realtime PCR Master Mix (TOYOBO) reagent was used to perform quantitative PCR.
as §2, §3, §4

SMILES	induction of expression of zeta-globin gene (hbae5), WISH [1]	up-regulation of expression of zeta-globin gene (hbae5), qPCR [2] [folds]	up-regulation of expression of zeta-globin gene (HBZ), qPCR [3] [folds]
N[C@@H](Cc1cc(I)c(Oc2ccc(O)c(I)c2)c(I)c1)C(=O)O [T3, 3,3′,5-Triiodo-L-thyronine]	significantly induce	31	–
N[C@@H](Cc1cc(I)c(Oc2cc(I)c(O)c(I)c2)c(I)c1)C(=O)O [T4, 3,3′,5,5′-tetraiodothyronine]	significantly induce	41	–
O=C(O)Cc1cc(I)c(Oc2ccc(O)c(I)c2)c(I)c1 [Triac, 2-[4-(4-hydroxy-3-iodophenoxy)-3,5-diiodophenyl] acetic acid]	significantly induce	76	50.9
